Where “and” joins values, the source holds several entries; their conditions need not be identical. Identical values can stand only once. Bridge positions count the residues as written; N and C are the ends. Square brackets hold non-standard residues; d marks the D form. Peptide text beside a SMILES is read from it. * marks the point of attachment. ξ: configuration not given here. NMeI = CC[CH](C)[CH](NC)C(=O)O; ξNMe2Val = CC(C)C(C(=O)*)N(C)C; NMeT = CN[CH](C(=O)O)[CH](C)O; NMeL = CN[CH](CC(C)C)C(=O)O; Hiv = CC(C)[CH](O)C(=O)O; NMeS = CN[CH](CO)C(=O)O; NMeA = CN[CH](C)C(=O)O
Tests used:
[1] = system: MDA-MB-435 (breast cancer); assay: NCI60 screen, MDA-MB-435; type: cell-based, human; conditions: second screen
Experimental: (§1) Coibamide A was tested against the National Cancer Institute NCI60 tumor cell lines (dtp.nci.nih.gov/branches/btb/ivclsp.html; Shoemaker, R. H. (2006) Nat. Rev. Cancer, 6:813-823), which comprises 60 human cancer cell lines including leukemias, melanomas, ovarian, renal, prostate, breast, colon, lung and central nervous system (CNS) cancers (the data from two screens are provided in FIGS. 3A and 3B). […] Growth inhibition of 50% (GI50) is the drug concentration resulting in a 50% reduction in the net protein increase in control cells during the drug incubation. Similarly, total growth inhibition (TGI) is the drug concentration resulting in zero net protein increase in control cells, and the lethal concentration of 50% (LC50) is the drug concentration resulting in a 50% reduction in the measured protein at the end of the drug treatment as compared to that at the beginning, (a net loss of cells following treatment). […] Coibamide A produced mean cytostatic (GI50 and TGI with range) and cytotoxic (LC50 and range) parameters as follows: log GI50, −8.04 (2.96); log TGI, −5.85 (3.43); log LC50, −5.11 (2.66). These log mean values of <−4 with log range values of >2 indicate both potency and histological selectivity (FIG. 4).

[2] = system: T-47D (breast cancer); assay: NCI60 screen, T-47D; type: cell-based, human
Experimental: as §1

[3] = system: RXF 393 (renal cancer); assay: NCI60 screen, RXF 393; type: cell-based, human; conditions: second screen
Experimental: as §1

[4] = system: neuro-2a mouse neuroblastoma cells; assay: MTT cytotoxicity, neuro-2a cells; type: cell-based; conditions: mouse/rat NG108-15, N2a, 48 hours, read-out: LC50 (the source's name)
Experimental: (§2) Cytotoxicity was measured in NCI-H460 human lung tumor cells and neuro-2a mouse neuroblastoma cells using the method of Alley et. al. (Cancer Res. (1988) 48:589-601) with cell viability being determined by 3-(4,5-dimethylthiazol-2-yl)-2,5-diphenyltetrazolium bromide (MTT) reduction (Manger et al. (1995) J. AOAC Int., 78:521-527). Cells were seeded in 96-well plates at 6000 cells/well in 180 μL of RPMI 1640 medium with 10% fetal bovine serum. Twenty-four hours later, the test chemical was dissolved in DMSO, diluted into medium without fetal bovine serum and added at 20 μL/well. DMSO was less than 0.5% of the final concentration. After 48 hours, the medium was removed and cell viability determined.

[5] = system: LOX IMVI (melanoma); assay: NCI60 screen, LOX IMVI; type: cell-based, human
Experimental: as §1

[6] = system: A-10 cells; assay: cytoskeletal immunofluorescence study in A-10 cells; type: cell-based
Experimental: (§3) Cytoskeletal assays were carried out on 1. […] Therefore, it was hypothesized that 1 might cause mitotic abnormalities by a non-tubulin dependent mechanism, and flow cytometry studies were initiated to look at the effect of the compound on cell cycle distribution (FIG. 2).

[7] = system: histone deacetylase (HDAC); assay: HDAC inhibition; type: biochemical
[8] = system: SK-MEL-5 (melanoma); assay: NCI60 screen, SK-MEL-5; type: cell-based, human
Experimental: as §1

[9] = system: UACC-62; assay: NCI60 screen, UACC-62; type: cell-based, human; conditions: second screen
Experimental: as §1

[10] = system: HL60(TB) (leukemia); assay: NCI60 screen, HL60(TB); type: cell-based, human; conditions: second screen
[11] = system: SK-OV-3 (ovarian cancer); assay: NCI60 screen, SK-OV-3; type: cell-based, human; conditions: first screen
Experimental: as §1

[12] = system: HCC-2998 (colon cancer); assay: NCI60 screen, HCC-2998; type: cell-based, human
Experimental: as §1

[13] = system: HeLa cervical cancer cells; assay: immunofluorescence study in HeLa cells; type: cell-based
Experimental: as §3

[14] = system: COLO 205 (colon cancer); assay: NCI60 screen, COLO 205; type: cell-based, human
Experimental: as §1

[15] = system: A498 (renal cancer); assay: NCI60 screen, A498; type: cell-based, human; conditions: second screen
Experimental: as §1

[16] = system: HT29 (colon cancer); assay: NCI60 screen, HT29; type: cell-based, human
Experimental: as §1

[17] = system: National Cancer Institute NCI60 tumor cell lines; assay: NCI60 tumor cell line panel; type: cell-based, human
Experimental: as §1

[18] = system: SNB-75 (CNS cancer); assay: NCI60 screen, SNB-75; type: cell-based, human; conditions: second screen
Experimental: as §1

[19] = system: NCI-H460 human lung tumor cells; assay: MTT cytotoxicity, NCI-H460 cells; type: cell-based; conditions: 48 hours, read-out: LC50 (the source's name)
Experimental: as §2

[20] = system: HOP-92 (NSCLC); assay: NCI60 screen, HOP-92; type: cell-based, human
Experimental: as §1

[21] = system: MDA-MB-231/ATCC (breast cancer); assay: NCI60 screen, MDA-MB-231/ATCC; type: cell-based, human
Experimental: as §1

[22] = system: SF-295 (CNS cancer); assay: NCI60 screen, SF-295; type: cell-based, human; conditions: first screen
Experimental: as §1

[23] = system: SR (leukemia); assay: NCI60 screen, SR; type: cell-based, human
Experimental: as §1

[24] = system: MDA-MB-435 cells; assay: cell cycle analysis by flow cytometry; type: cell-based; conditions: 24 hours
Experimental: For cell cycle analysis, MDA-MB-435 cells were treated for 24 hours with vehicle or sample. The cells were harvested and stained with Krishan's reagent. This suspension was analyzed using a Becton Dickinson FACScan flow cytometer, and the data were plotted as propidium iodide intensity versus the number of events. Quality control samples were run with each assay to ensure instrument linearity and resolution.

[25] = system: SF-539 (CNS cancer); assay: NCI60 screen, SF-539; type: cell-based, human
Experimental: as §1

[26] = system: M-14 (melanoma); assay: NCI60 screen, M-14; type: cell-based, human; conditions: second screen
Experimental: as §1

[27] = mean over the panel, log range in brackets, preliminary

Molecule `CCC(C)C1C(=O)NC(C)C(=O)N(C)C(CC(C)C)C(=O)NC(Cc2ccc(OC)cc2)C(=O)N(C)C(C)C(=O)OC(C)C(N(C)C(=O)C(CC(C)C)N(C)C(=O)C(COC)N(C)C(=O)C(OC(=O)C(C(C)C)N(C)C)C(C)C)C(=O)N(C)C(COC)C(=O)N1C` (centres unmarked) [Coibamide A] (ξNMe2Val-[Hiv][NMeS](Me)[NMeL][NMeT][NMeS](Me)[NMeI]A[NMeL]Y(Me)[NMeA]; ester 4-C; configuration not given here) has a TGI [1] of 100 nM, a GI50 ([2]; Homo sapiens, T47D, undefined activity) of under 1 nM and a TGI ([2]; first screen) of 5.4 nM. The TGI [3] was 82.3 nM, the CC50 [4] was > 0.03 µg/mL and > 23 nM and the TGI ([5]; first screen) was 6.6 nM. For the same molecule, the TGI ([5]; second screen) was 7.4 nM, the microtubule changes [6] was “did not show any of the expected microtubule changes” and the mitotic spindles [6] was “some monopolar mitotic spindles were observed”. For the same molecule, the HDAC inhibitor activity [7] was “no significant activity”, the GI50 ([8]; Homo sapiens, SK-MEL-5, undefined activity) was under 1 nM and the TGI ([8]; first screen) was 6.0 nM. For the same molecule, the TGI ([8]; second screen) was 26.9 nM, the TGI [9] was 80.6 nM and the TGI [10] was 7.4 nM. The TGI [11] was 9.8 nM, the GI50 ([12]; Homo sapiens, HCC 2998, undefined activity) was under 1 nM and the TGI ([12]; first screen) was 8.3 nM. The TGI ([12]; second screen) was 93.7 nM, the mitotic structures ([13]; 100 nM concentration) was “two aberrant mitotic structures were observed” and the “phenotypic effects on microtubules or nuclear structures” value ([13]; immunofluorescence) was “did not show any expected phenotypic effects on microtubules or on nuclear structures”. The CC50 ([14]; Homo sapiens, COLO 205, NCI60 screen, read-out: LC50 (the source's name)) was 35.8 nM, the TGI ([14]; first screen) was 4.9 nM and the TGI ([14]; second screen) was 15.7 nM. The TGI [15] was 74.4 nM, the LC50 (concentration giving 50% net cell loss) ([16]; Homo sapiens, HT-29, NCI60 screen) was 93.3 nM and the GI50 ([16]; Homo sapiens, HT-29, undefined activity) was under 1 nM. For the same molecule, the TGI ([16]; first screen) was 10.4 nM, the TGI ([16]; second screen) was 14.6 nM and the “activity by cancer type from the mean graph for GI50 values” [17] was “consistently active against leukemias, CNS, colon, and breast cancer cells”. For the same molecule, the GI50 values ([17]; 53 of the 55 cancer cell lines screened) was “Nanomolar or better”, the CC50 ([17]; Homo sapiens, mean over the panel, log range in brackets, preliminary, read-out: mean log LC50 (range) (converted)) was 7760 nM and the “mean log GI50 (range)” value [17, 27] was −8.04 (2.96). For the same molecule, the “mean log TGI (range)” value [17, 27] was −5.85 (3.43), the TGI [18] was 7.6 nM and the CC50 [19] was > 0.03 µg/mL and > 23 nM. The TGI ([20]; first screen) was 25.4 nM, the TGI ([20]; second screen) was 11.4 nM and the TGI ([21]; first screen) was 25.1 nM. For the same molecule, the TGI ([21]; second screen) was 2.8 nM, the TGI [22] was 21.9 nM and the TGI ([23]; first screen) was 16.6 nM. For the same molecule, the TGI ([23]; second screen) was 87.0 nM, the “cells in G2/M” value [24] was “no change in G2/M” and the mitotic accumulation [24] was “does not cause any significant mitotic accumulation”. The “cells in G1 phase” value ([24]; dose dependent) was “large increase in the number of cells in G1 phase”, the “cells in S phase” value ([24]; dose dependent) was “reduction of cells in S phase” and the TGI ([25]; first screen) was 30.3 nM. The TGI ([25]; second screen) was 28.7 nM and the TGI [26] was 11.2 nM.

— US8034780B2, “Isolation, purification, and structure elucidation of the antiproliferative compound coibamide A” (priority 2007, dated 2011)
